Assay results taken from article PMC6435698, “Keggin-type polyoxotungstates as mushroom tyrosinase inhibitors - A speciation study” (Scientific Reports, 2019).
Read-outs that look alike come from different tables or passages of the source.

Experiments:
[1] = biological target: T1, abPPO4 (mushroom tyrosinase) (Agaricus bisporus, UniProt C7FF05); assay: dopachrome assay, inhibition of abPPO4 diphenolase activity; format: biochemical; settings: for α, inhibition parameter, from Lineweaver-Burk intercepts: [b] from Lineweaver-Burk intercepts; for Inhibition type: substrate L-DOPA; for inhibitory effect on abPPO4 activity (in words): activity plots; for Ki [mM], from Dixon plots: L-DOPA 0.4–1.5 mM; for Ki [mM], from Lineweaver-Burk slopes: L-DOPA 0.4–1.5 mM
T1 construct: glutathione-S-transferase (GST) (N, cleaved yes); made in house; host or cells: E. coli BL21(DE3)
T1 sequence (C7FF05 1-379 limits assumed): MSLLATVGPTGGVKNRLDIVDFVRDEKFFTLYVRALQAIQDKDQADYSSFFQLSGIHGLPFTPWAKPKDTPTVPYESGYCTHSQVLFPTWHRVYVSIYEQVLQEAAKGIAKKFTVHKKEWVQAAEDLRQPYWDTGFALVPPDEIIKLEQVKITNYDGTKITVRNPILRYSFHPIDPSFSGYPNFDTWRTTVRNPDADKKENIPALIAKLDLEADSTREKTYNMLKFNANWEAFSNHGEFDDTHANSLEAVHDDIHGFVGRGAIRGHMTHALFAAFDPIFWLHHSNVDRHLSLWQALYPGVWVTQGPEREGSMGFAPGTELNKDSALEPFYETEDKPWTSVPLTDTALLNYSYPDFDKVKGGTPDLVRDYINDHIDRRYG
Protocol: The detailed methodology applied for kinetic evaluation is presented in the SI.
For the activity plots shown here, the ratios of reaction rates v ([I] = 0] and vapp ([I] = 0.2–14 mM) were determined from UV absorption measurements at 475 nm using the dopachrome assay. Each reaction setup contained a fixed amount of enzyme (1 µg abPPO4) in 1 mL in a plastic cuvette and the reaction buffer was 50 mM Na-citrate pH 6.8. POT stock solutions were prepared in 20 mM concentration in reaction buffer and adjusted for pH 6.8 with NaOH, if necessary. The reaction rates were extracted from the obtained absorption curves as the slope of linear fits of the steepest curve sections close to the start of the reaction over a time-range of 30 s and were determined in triplicates. The relative enzymatic activity dependent on the inhibitor concentration was fitted to a suitable hyperbolic expression (see SI for details). […] The dopachrome assay was performed exactly as described in section 3.1.1. This time, the observed reaction velocities vapp (in µmol/min) were calculated from the extracted reaction rates (in 1/s) using the extinction coefficient of dopachrome ε = 3700 M^−1 cm^−1 [62]. The so obtained data was plotted according to Lineweaver-Burk, and the slopes and ordinate intercepts of these graphs were used to extract inhibition parameters.
(The kinetic models with according mathematical expressions applied in this study are based on Copeland’s guide for enzyme kinetics[28].)
The classical Michaelis-Menten equation[28] relates the velocity v of an enzymatic reaction to the applied substrate concentration [S]:
In this equation, the Michaelis constant KM represents the substrate concentration effecting the half-maximum reaction rate vmax.
For the reported inhibition studies, we chose an expanded version of this equation (1) which accounts for all possible inhibition mechanisms and combinations thereof[28]. In general, both […]
ݒ௠௔௫,௔௣௣ = ௩೘ೌೣଵା [಺] (2)
Herein, [I] refers to the inhibitor concentration, Ki is the inhibition constant measuring the […]
The three ideal inhibition types are reflected by three limiting conditions for α:
(A) 0 < α <<1: uncompetitive inhibition
(B) α = 1: non-competitive inhibition
(C) α >> 1: competitive inhibition
Therefore, values of α < 1 often correspond to mixed-type inhibition with contributions from uncompetitive and non-competitive inhibition modes.
Insertion of expressions (2) and (3) in equation (1) leads to the final mixed-type inhibition […]
The relative enzymatic activity upon inhibition can be expressed as the ratio of the observed reaction velocity v app to the non - inhibited reaction performance v through dividing equation […]
This corresponds to a normalization of the reaction rates with respect to the non - inhibited rate. As w e were interested in the dependence of the reaction velocity on the inhibitor concentration , the substrate concentration was fixed to 1 mM L - DOPA for all activity plots.
This led to a further simplification of equation ( 1 ) : […]
Equation (6) was used as the final curve fit expression for kinetic evaluation of those POM […]
K M was set to 26.1 mM as reported for ab PPO4 by
3.2 Determination of inhibition type
3.2. 1 Kinetic evaluation using Lineweaver - Burk plots […]
linear Lineweaver - Burk [ 29 ] extrapolations. The double - reciprocal plots of 1/ v app against 1/[S] yielded straight li nes that were fitted accordingly to the corresponding ly rearranged form of […]
For simplicity, the terms for the slope m and the ordinate shift t are co mbine d in constants in […]

[2] = speciation / hydrolytic stability of POTs at pH 6.8 by 183W NMR; format: physicochemical; settings: 183W NMR (and 31P, 27Al NMR), ca. 20 mM in 50 mM Na-citrate pH 6.8
From the text: ^183W NMR spectroscopy is the most widely applied and reliable technique for the structural characterization of POTs in solution as well as to monitor the progress of reaction. Hundreds of POM ^183W NMR spectra have been reported since the first ^183W NMR spectrum for [SiW11]^8− observed by Acerete et al. in[47]. The here-presented ^183W NMR analysis yielded a single signal for all intact [XW12]^n− structures (Figs 4A,D and S11–S14), reflecting the perfect tetrahedral symmetry of the Keggin α-isomer and clearly confirming the isomeric purity of the prepared POTs.
^183W NMR samples for all the POM compounds were prepared in high concentrations similar to the stock solutions used for kinetic experiments (usually about 20 mM) in 50 mM Na-citrate pH 6.8 if not stated otherwise. ^183W NMR spectra were recorded with a Bruker FT-NMR spectrometer Avance Neo 500 MHz in 10 mm tubes for a total experiment time of ca. 60 hours, using standard pulse programs at 20.836 MHz and a 63° flip angle with 1 s of relaxation delay; the temperature was kept at 25 °C. Chemical shifts were measured relative to external 1 M Na2WO4. For [PW12]^3−, [PW11]^7− and […], additional ^31P NMR spectra were taken, structures of [AlW12]^5−, [AlW11]^9− and [BeW12]^6− were confirmed by ^27Al NMR or ^9Be NMR spectroscopy, respectively. ^27Al, ^9Be and ^31P NMR spectra were recorded at 130.368, 70.273 and 202.53 MHz, respectively. Chemical shifts are given relative to Al(NO3)3, BeSO4 or 85% H3PO4.
In the ^183W NMR spectrum of [PW12]^3− at pH 6.8 (see Fig. 4E), the six most intense peaks can be assigned to six different symmetry-equivalent positions in [PW11]^7−[47],[49]. The less intense signals in the ^183W NMR spectrum can be attributed to other [PW12]^3− hydrolysis products[51] that have been identified in the ^31P NMR spectrum (Fig. S7B). […] Based on both spectra, it can be concluded that [PW11]^7− prevails in aqueous solution at pH 6.8. […] Assignment is complicated by the special pseudo-paramagnetic character of this cluster (see ^183W NMR analysis in Fig. S15, SI section 2.2.2.4).
In order to identify the tungstate species responsible for the inhibitory effect observed with the orthotungstate solution [WO4]^2−, ^183W NMR was performed in reaction buffer pH 6.8, which had to be readjusted by a few drops of 5 M HCl to compensate for the marked basicity of [WO4]^2−. […] The chemical shifts are in agreement with literature data[56]. […] The ^183W NMR spectra for the POT clusters with higher negative charges (see Figs S11–S14) show only one single signal, thereby confirming full structural integrity of the corresponding Keggin anions at pH 6.8. The lacunary cluster [AlW11]^9− evoked a rise in pH up to 8.5 upon dissolution in reaction buffer (pH 6.8) to reach a final concentration of 20 mM. […] In the [BeW12]^6− spectrum (Fig. S14), three additional signals at −147.6, −155.3 and −168.6 ppm can be seen, which were assigned to the β-Keggin isomer. The C3v symmetry of this isomer results in three shifts with intensity ratio 1:2:1, as previously observed for other β-isomers of Keggin structure. The β-isomer is commonly formed during any synthesis of Keggin clusters, but rearranged to the α-form during prolonged thermal reaction. Thus, the occurrence of the β-form in the present preparation can be ascribed to the reduced reaction time applied for the hydrothermal synthesis. […] The ^31P (cf. Fig. S8) and ^183W NMR (Fig. S15) spectra of [PW11Ni]^5− have a special character originating from the peculiar electronic configuration of Ni^2+ and were in general accordance with reference data[61]. In the presented ^183W NMR spectrum, signals from those W atoms in direct neighbourhood to the Ni^2+ center cannot be observed, which complicates unambiguous assignment to the desired substituted POT structure. However, the obtained results can be explained in the light of electronic effects. […]

[3] = expected from net charge; cited from earlier work
[4] = test system: mushroom tyrosinase; settings: substrate L-DOPA; cited from earlier work
[5] = test system: Bacillus megaterium tyrosinase; parameters: method as in PMID 27725765; settings: substrate L-DOPA; cited from earlier work
[6] = [a] from activity plot, 1 mM L-DOPA, 50 mM Na-citrate pH 6.8, 0–14 mM POT, read-out: Ki [mM], from activity plot
[7] = [a] from activity plot, 1 mM L-DOPA, pH 6.8
[8] = [b] from Lineweaver-Burk slopes, L-DOPA 0.4–[…], pH 6.8, read-out: Ki [mM], from Lineweaver-Burk slopes
[9] = [c] from Dixon plots, average intersection, L-DOPA 0.4–[…], pH 6.8, read-out: Ki [mM], from Dixon plots
[10] = [a] from activity plot, 1 mM L-DOPA, 50 mM Na-citrate pH 6.8, 0–14 mM POT

Row | Molecule | Ki [1, 6] | α, inhibition parameter, from activity plot [1, 7] | α, inhibition parameter, from Lineweaver-Burk intercepts ([1]; pH 6.8) | Inhibition type ([1]; pH 6.8) | structural integrity / hydrolysis at pH 6.8 [2] | Ki [mM], from activity plot [1, 10] | inhibitory effect on abPPO4 activity (in words) ([1]; 1 mM L-DOPA, pH 6.8) | also measured
1 | [Na+].[Na+].[O]=[W](=[O])([O-])[O-] [[WO4]^2−, Na2WO4, reference compound] | 20 mM | 0.14 | 0.03 | Mixed-type | no detectable residual free orthotungstate |  |  | Ki [1, 8]: 19 mM; Ki [1, 9]: 24.8 mM
2 | Na5[AlW12O40] [[AlW12]^5−] |  |  |  | No inhibition | retain full structural integrity | No inhibition |  | 
3 | Na6[BeW12O40] [[BeW12]^6−] |  |  |  | No inhibition | retain full structural integrity | No inhibition |  | stability in aqueous buffers up to pH [3]: ≤ 9 pH
4 | K8[SiW11O39] [[SiW11]^8−] |  |  |  | No inhibition |  | No inhibition | no enzymatic inhibition | inhibitory effect on abPPO4 activity (in words) ([1]; 1 mM L-DOPA, pH 6.8, listed as Hx[SiW11O39]^(8−x)−): ineffective
5 | K7[PW11O39] [[PW11]^7−] | 12 mM | 0.12 | 0.17 | Mixed-type |  |  | inhibitory effect of intermediate capacity | Ki [1, 8]: 9.9 mM; Ki [1, 9]: 9.9 mM
6 | Na6[H2W12O40] [[H2W12]^6−] |  |  |  | No inhibition | retain full structural integrity | No inhibition |  | 
7 | Na3[PW12O40] [[PW12]^3−] |  | 0.13 | 0.20 | Mixed-type | full hydrolysis |  | markedly lower inhibition capacity | 
8 | H[W7O24]^5− [heptatungstate] |  |  |  |  |  |  | measurable inhibition effects | 
9 | [AlW11O39{Al(H2O)}]^6− | 54.1 mM |  |  |  |  |  | weak inhibition effects | 
10 | K5[BW12O40] [[BW12]^5−] |  |  |  | No inhibition | retain full structural integrity | No inhibition |  | 
11 | O=c1cc(CO)occ1O [kojic acid] |  |  |  |  |  |  |  | inhibition mode [4]: competitive; inhibition mode [5]: mixed-type
12 | K5[PW11O39{Ni(H2O)}] [[PW11Ni]^5−] | 9.7 mM | 0.12 | 0.20 | Mixed-type |  |  | pronounced inhibition | Ki [1, 8]: 14.3 mM; Ki [1, 9]: 15 mM
13 | Na9[AlW11O39] [[AlW11]^9−] |  | 0.12 | 0.31 | Mixed-type | not stable |  | weak inhibitory capacity | 
14 | O=[N+]([O-])[O-].O=[N+]([O-])[O-].[Ni+2] [Ni^2+, Ni(NO3)2, reference compound] |  |  |  | No inhibition |  | No inhibition | no inhibition effect | 
15 | K4[SiW12O40] [[SiW12]^4−] | 4.7 mM | 0.11 | 0.32 | Mixed-type | partial hydrolysis |  | most potent inhibitory effect | Ki [1, 8]: 3.8 mM; Ki [1, 9]: 5.6 mM
